Results taken from US12593767B2, “Protoplast isolation and regeneration of plants” (The Regents of the University of California, priority 2019, dated 2026).
Where “and” joins values, the source holds several entries; their conditions need not be identical. Identical values can stand only once. Like-named read-outs stand apart in the source and are kept apart here.

Legend:
TS protoplast = assay: Polyamines: callus colony formation from encapsulated protoplasts in 1103P feeder suspension; assay type: cell-based, grape; conditions: for # colonies/alginate bead: 14 days after encapsulation, beads 1-5; for # colonies/alginate bead, Average / # colonies, Total: 14 days; for # colonies, Total: total of 5 beads
Procedure: We re-suspended embedded protoplasts in conditioned osmotically adjusted grape cell suspension cultures in 125 ml shake flasks and incubated them at 100 rpm and 25 degrees centigrade. In this system, we utilize a grape nurse suspension culture that is of a different genotype than the genotype used to generate the protoplasts. For example, we used 1103P conditioned cell suspension cultures for embedded Thompson Seedless protoplasts.
Recently, we have replaced the use of the shake flasks with 60×15 mm petri plates. This format allows for easy observation of the protoplasts using an inverted microscope and aids sampling of beads to evaluate the fate of the embedded protoplasts. Beads are cultured in 3.5 ml of Lloyd and McCown minimal organics medium supplemented with 30 g/l sucrose, 10 mg/l Picloram and 2.0 mg/l TDZ, 0.4 M mannitol, 1,191 mg/l HEPES, 50 mM CaCl2, 5× antioxidant solution with 1.5 ml of conditioned 1103P cell suspension culture.
We are testing the ability of these polyamines to increase the plating efficiency of encapsulated protoplast as well as increase the rate of cell division. Initially we tested 1.0 mM putrescine in combination with 0.0 or 0.1 mM spermidine since we have previously found these levels to be beneficial in other plant species.

[1] = test system: protoplast-derived somatic embryos; assay: Maintenance of embryo-containing beads on sorbitol-containing agar medium; assay type: cell-based, grape; conditions: beads maintained on agar-solidified medium containing sorbitol (50 g/l)
Procedure: Using forceps, we manually transferred individual beads to a 100×20 mm petri dish containing 40 ml of Lloyd and McCown minimal organics medium supplemented with 20 g/l sucrose, 1 g/l casein, 222 mg/l CaCl2, without hormones or activated charcoal. We repeated this transfer/washing process two more times to eliminate any of the feeder suspension cells. We then transferred beads onto agar-solidified 100×20 mm feeder plates containing 40 ml of Lloyd and McCown minimal organics medium supplemented with 20 g/l sucrose, 50 g/l sorbitol, 1 g/l casein, 1 mM MES, 0.5 mg/l BAP and 0.1 mg/l NAA onto which 1.0 ml of a […] grape suspension culture is plated. The grape suspension culture medium consisted of WPM medium supplemented with 20 g/l sucrose 10 mg/l picloram and 2.0 […] mannitol, 222 mg/l CaCl2, 1 g/l casein, 1,191 mg/l HEPES and 2 g/l activated charcoal, pH 5.7. We placed an 85 mm Whatman filter paper over the plated suspension and a 70 mm Whatman filter paper on top of the 85 mm filter. We placed beads on top of the 70 mm filter paper. We add 1 ml Lloyd and McCown minimal organics medium supplemented with 30 g/l sucrose, 1 g/l casein, 1 mM MES, 10 mg/l picloram and 2.0 mg/l TDZ to each plate to prevent desiccation. We incubated the cultures at 26 degrees centigrade in the dark. After approximately 3-4 weeks, mini-calli developed into somatic embryos within the beads (FIG. 15). […]

Merlot protoplasts = conditions: for Ave colonies per bead / Number of colonies, Total / Number of colonies per bead: + 1.0 mM PUT, 0.1 mM SPD; for Number of colonies, Total: total of 5 beads; for Number of colonies per bead: beads 1-5
Procedure: I have developed and tested an antioxidant solution consisting of 100 mg/l ascorbic acid, 150 mg/l citric acid, 30 mg/l reduced glutathione and 100 mg/l L-cysteine (PTF AQ). I tested the effect of this antioxidant addendum on protoplast viability and division on Thompson seedless and Merlot protoplast culture. Protoplast were isolated and encapsulated in 1.6% calcium alginate beads. Calcium alginate beads from the same protoplast preparation were randomly transferred to shake flasks containing conditioned 0.4 M Pic/TDZ 1103P feeder cell suspensions with or without the addition of 1× or 5× of the antioxidant solutions. After 14 days, the osmotic strength of the feeder suspension was reduced from 0.4 M to 0.2 M mannitol. At day 35, I randomly harvested five beads per treatment and counted the number of mini calli per bead.

[2] = SPD 0.0 mM, CAD 0.1 mM, + 1.0 mM putrescine, 0.1 mM spermidine, Experiment 19136
[3] = SPD 0.0 mM, CAD 1.0 mM, + 1.0 mM putrescine, 0.1 mM spermidine, Experiment 19136
[4] = SPD 0.1 mM, CAD 0.0 mM, + 1.0 mM putrescine, 0.1 mM spermidine, Experiment 19136
[5] = SPD 0.1 mM, SPM 0.0 mM, + 1 mM putrescine, Experiment 19129
[6] = SPD 1.0 mM, CAD 0.0 mM, + 1.0 mM putrescine, 0.1 mM spermidine, Experiment 19136
[7] = SPD 1.0 mM, SPM 0.0 mM, + 1 mM putrescine, Experiment 19129
[8] = SPD 0.0 mM, SPM 0.1 mM, + 1 mM putrescine, Experiment 19129
[9] = SPD 0.0 mM, SPM 1.0 mM, + 1 mM putrescine, Experiment 19129

SMILES: NCCCCCN [cadaverine]
- # colonies/alginate bead (TS protoplast; SPD 0.0 mM, CAD 0.1 mM, + 1.0 mM putrescine, 0.1 mM spermidine, Experiment 19136, listed as CAD): 100 colonies/alginate bead and 115 colonies/alginate bead and 92 colonies/alginate bead and 104 colonies/alginate bead and 95 colonies/alginate bead
- # colonies/alginate bead, Average (TS protoplast; [2]): 101.2 colonies/alginate bead
- # colonies, Total (TS protoplast; [2]): 506
- # colonies/alginate bead (TS protoplast; SPD 0.0 mM, CAD 1.0 mM, + 1.0 mM putrescine, 0.1 mM spermidine, Experiment 19136, listed as CAD): 104 colonies/alginate bead and 82 colonies/alginate bead and 87 colonies/alginate bead and 92 colonies/alginate bead and 73 colonies/alginate bead
- # colonies/alginate bead, Average (TS protoplast; [3]): 87.6 colonies/alginate bead
- # colonies, Total (TS protoplast; [3]): 438
- cell division or cells growth from grape protoplasts (TS protoplast; cadaverine 0.1 or 1.0 mM, + 1.0 mM putrescine, 0.1 mM spermidine, 0.0-1.0 mM spermine): does not seem to enhance cell division or cells growth

SMILES: NCCCCN [putrescine]
- callus colony formation (TS protoplast; 1.0 mM putrescine): stimulated callus colony formation

SMILES: OC[C@@H](O)[C@@H](O)[C@H](O)[C@@H](O)CO [sorbitol]
- germination of embryos in beads [1]: will not germinate further and become dormant

SMILES: NCCCCNCCCN [spermidine]
- callus colony formation, addition to 1.0 mM putrescine (TS protoplast; 0.1 mM spermidine): did not enhance the response
- # colonies/alginate bead (TS protoplast; SPD 0.1 mM, CAD 0.0 mM, + 1.0 mM putrescine, 0.1 mM spermidine, Experiment 19136, listed as SPD): 68 colonies/alginate bead and 79 colonies/alginate bead and 64 colonies/alginate bead and 65 colonies/alginate bead and 86 colonies/alginate bead
- # colonies/alginate bead, Average (TS protoplast; [4]): 72.4 colonies/alginate bead
- # colonies, Total (TS protoplast; [4]): 362
- # colonies/alginate bead (TS protoplast; SPD 0.1 mM, SPM 0.0 mM, + 1 mM putrescine, Experiment 19129, listed as SPD): 91 colonies/alginate bead and 93 colonies/alginate bead and 120 colonies/alginate bead and 110 colonies/alginate bead
- # colonies/alginate bead, Average (TS protoplast; [5]): 101.4 colonies/alginate bead
- # colonies, Total (TS protoplast; [5]): 507
- # colonies/alginate bead (TS protoplast; SPD 1.0 mM, CAD 0.0 mM, + 1.0 mM putrescine, 0.1 mM spermidine, Experiment 19136, listed as SPD): 133 colonies/alginate bead and 121 colonies/alginate bead and 115 colonies/alginate bead and 98 colonies/alginate bead
- # colonies/alginate bead, Average (TS protoplast; [6]): 120 colonies/alginate bead
- # colonies, Total (TS protoplast; [6]): 600
- # colonies/alginate bead (TS protoplast; SPD 1.0 mM, SPM 0.0 mM, + 1 mM putrescine, Experiment 19129, listed as SPD): 81 colonies/alginate bead and 97 colonies/alginate bead and 79 colonies/alginate bead and 125 colonies/alginate bead and 89 colonies/alginate bead
- # colonies/alginate bead, Average (TS protoplast; [7]): 94.2 colonies/alginate bead
- # colonies, Total (TS protoplast; [7]): 471

SMILES: NCCCNCCCCNCCCN [spermine]
- enhancement in growth (TS protoplast; 0.1 mM spermine, + 1.0 mM putrescine): did not see any enhancement in growth
- callus colony growth (TS protoplast; 1.0 mM spermine, 21 days of culture, regardless of the level of CAD): significant enhancement in callus colony growth
- number of protoplasts that divided and speed of protoplast derived callus formation (TS protoplast; 1.0 mM spermine, + 1.0 mM putrescine, irrespective of the spermidine concentration): enhanced the number of protoplasts that divided and the speed of protoplast derived callus formation
- # colonies/alginate bead (TS protoplast; SPD 0.0 mM, SPM 0.1 mM, + 1 mM putrescine, Experiment 19129, listed as SPM): 96 colonies/alginate bead and 81 colonies/alginate bead and 79 colonies/alginate bead and 59 colonies/alginate bead and 84 colonies/alginate bead
- # colonies/alginate bead, Average (TS protoplast; [8]): 79.8 colonies/alginate bead
- # colonies, Total (TS protoplast; [8]): 399
- # colonies/alginate bead, Average (TS protoplast; [9]): 205.8 colonies/alginate bead
- # colonies, Total (TS protoplast; [9]): 1029
- number and speed of mini-callus formation (TS protoplast; Thompson seedless derived protoplasts): significantly enhanced the number and speed of mini-callus formation
- number and speed of mini-callus formation (Merlot protoplasts; Merlot derived protoplasts): significantly enhanced the number and speed of mini-callus formation
- Ave colonies per bead (Merlot protoplasts; SPM 0.1 mM): 0.2 colonies per bead
- Number of colonies, Total (Merlot protoplasts; SPM 0.1 mM): 1
- Ave colonies per bead (Merlot protoplasts; SPM 0.25 mM): 0 colonies per bead
- Number of colonies per bead (Merlot protoplasts; SPM 0.25 mM): 0 colonies per bead
- Number of colonies, Total (Merlot protoplasts; SPM 0.25 mM): 0
- Ave colonies per bead (Merlot protoplasts; SPM 0.5 mM): 0.2 colonies per bead
- Number of colonies, Total (Merlot protoplasts; SPM 0.5 mM): 1
- Ave colonies per bead (Merlot protoplasts; SPM 0.75 mM): 0 colonies per bead
- Number of colonies per bead (Merlot protoplasts; SPM 0.75 mM): 0 colonies per bead
- Number of colonies, Total (Merlot protoplasts; SPM 0.75 mM): 0
- Ave colonies per bead (Merlot protoplasts; SPM 1.0 mM): 6.2 colonies per bead
- Number of colonies, Total (Merlot protoplasts; SPM 1.0 mM): 31
